In patent US12252524B2, “GIP/GLP1 co-agonist compounds” (Eli Lilly and Company, priority 2018, dated 2025):
Numbered stars: 1 amine (or outer) side, 2 acyl side, 3 side chain; on linkers, the order of the positions; unused ones are H or OH. Square brackets hold non-standard residues; d marks the D form. Side chains are listed from the residue outwards. Peptide text beside a SMILES is read from it. * marks the point of attachment. C18 diacid = O=C(O)CCCCCCCCCCCCCCCCC(=O)*; αMePhe(2-F) = C[C@](N)(Cc1ccccc1F)C(=O)O; γGlu = O=C(O)[C@H](CCC(=O)[*:2])N[*:1]; αMeY = C[C@](N)(Cc1ccc(O)cc1)C(=O)O; αMeL = CC(C)C[C@](C)(N)C(=O)O; Orn = NCCC[C@H](N)C(=O)O; AEEA = NCCOCCOCC(=O)O; Aib = CC(C)(N)C(=O)O

Columns and labels:
human Gcg receptor = biological target: T1, human Gcg receptor (Homo sapiens, UniProt P47871); experiment: [125I]-Glucagon binding (SPA), human Gcg receptor; settings: read-out: hGLcgR Ki, nM (SEM, n)
T1 construct: expressed in transfected cells; crude membranes
In short: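 Cell pellets were lysed in hypotonic Tris buffer, pH 7.5, homogenized, and spun at low then high speed to give crude membranes. Ki was derived from the fitted IC50.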

human GIP receptor = biological target: T2, human GIP receptor (Homo sapiens, UniProt P48546); experiment: [125I]-GIP binding (SPA), human GIP receptor; settings: read-out: hGIPR Ki, nM (SEM, n)
T2 construct: expressed in transfected cells; crude membranes
T2 sequence (P48546 22-466): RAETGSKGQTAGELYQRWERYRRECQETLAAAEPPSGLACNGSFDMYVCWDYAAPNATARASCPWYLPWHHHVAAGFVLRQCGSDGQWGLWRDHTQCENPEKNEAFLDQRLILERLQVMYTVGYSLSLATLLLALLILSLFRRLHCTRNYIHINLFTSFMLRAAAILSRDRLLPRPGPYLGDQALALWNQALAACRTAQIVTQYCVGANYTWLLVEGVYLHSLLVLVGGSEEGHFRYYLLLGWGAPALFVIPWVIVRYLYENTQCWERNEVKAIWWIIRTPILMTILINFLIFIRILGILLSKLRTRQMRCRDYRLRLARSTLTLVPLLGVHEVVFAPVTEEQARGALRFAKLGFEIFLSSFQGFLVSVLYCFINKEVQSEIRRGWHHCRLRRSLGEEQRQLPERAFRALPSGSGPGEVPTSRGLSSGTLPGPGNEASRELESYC

[1] = biological target: human GLP-1 receptor (GLP-1R) (Homo sapiens, UniProt P43220); experiment: cAMP pharmacological functional assay in presence of casein, hGLP-1R; assay type: cell-based; settings: HEK293 cells expressing hGLP-1R, 0.1% Casein, geometric mean; read-out: hGLP1R cAMP Rel EC50 nM (SEM, n)
[2] = biological target: T3, gastric inhibitory peptide receptor (GIPR) (Homo sapiens, UniProt P48546); experiment: cAMP pharmacological functional assay in presence of casein, hGIPR; assay type: cell-based; settings: HEK293 cells expressing hGIPR, 0.1% Casein, geometric mean; read-out: hGIPR cAMP Rel EC50 nM (SEM, n)
T3 sequence (P48546 22-466): T2 sequence (P48546 22-466)

human GLP-1R = human GLP-1R (Homo sapiens, UniProt P43220); experiment: [125I]-GLP-1 binding (SPA), human GLP-1 receptor; parameters: expressed in transfected cells; crude membranes; settings: read-out: hGLP1R Ki, (nM) (SEM, n)
In short: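 Assay buffer: HEPES 25 mM, pH 7.4, CaCl2 2.5 mM, MgCl2 1 mM, with EDTA-free protease inhibitors. Receptor came from crude cell membranes prepared by homogenization and centrifugation at 4° C. IC50s came from four-parameter fits (maximum, minimum, IC50, Hill slope) and were expressed as Ki geometric means with SEM.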

Sequence of human GLP-1R (P43220 24-463): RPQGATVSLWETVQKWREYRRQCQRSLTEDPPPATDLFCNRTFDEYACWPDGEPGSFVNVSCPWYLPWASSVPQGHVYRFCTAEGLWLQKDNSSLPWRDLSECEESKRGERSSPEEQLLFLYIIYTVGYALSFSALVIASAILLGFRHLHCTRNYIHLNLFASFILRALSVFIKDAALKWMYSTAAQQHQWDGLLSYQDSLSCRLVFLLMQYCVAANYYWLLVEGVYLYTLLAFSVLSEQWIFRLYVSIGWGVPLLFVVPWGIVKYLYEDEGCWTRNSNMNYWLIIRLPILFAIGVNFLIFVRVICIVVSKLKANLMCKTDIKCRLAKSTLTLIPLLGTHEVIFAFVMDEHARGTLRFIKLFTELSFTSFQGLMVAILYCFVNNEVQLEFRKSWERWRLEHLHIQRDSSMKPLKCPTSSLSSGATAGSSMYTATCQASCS
Sequence of human GLP-1 receptor (GLP-1R) (P43220 24-463): as above
T1 sequence (P47871 26-477): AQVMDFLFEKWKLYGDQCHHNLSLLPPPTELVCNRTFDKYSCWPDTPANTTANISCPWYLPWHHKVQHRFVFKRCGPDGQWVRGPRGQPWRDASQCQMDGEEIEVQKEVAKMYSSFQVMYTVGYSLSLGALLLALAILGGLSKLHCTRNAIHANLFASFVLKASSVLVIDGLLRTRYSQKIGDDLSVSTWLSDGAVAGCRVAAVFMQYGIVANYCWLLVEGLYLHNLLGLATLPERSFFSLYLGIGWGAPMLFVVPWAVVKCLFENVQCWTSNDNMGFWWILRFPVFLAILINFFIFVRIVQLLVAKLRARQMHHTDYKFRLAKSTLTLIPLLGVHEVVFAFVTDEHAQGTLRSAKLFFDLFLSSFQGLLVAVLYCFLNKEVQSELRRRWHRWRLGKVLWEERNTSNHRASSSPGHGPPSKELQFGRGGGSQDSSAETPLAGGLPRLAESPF

SMILES | Ki (human Gcg receptor) [nM] | Ki (human GIP receptor) [nM] | EC50 [1] [nM] | EC50 [2] [nM] | Ki (human GLP-1R) [nM]
CC[C@H](C)[C@H](NC(=O)[C@H](CC(C)C)NC(=O)[C@](C)(Cc1ccc(O)cc1)NC(=O)[C@@H](CCC(=O)O)NC(=O)[C@@H](NC(=O)[C@H](Cc1ccccc1)NC(=O)[C@H](C)NC(=O)C(C)(C)NC(=O)[C@H](CCC(N)=O)NC(=O)[C@H](C)NC(=O)[C@H](CCCCNC(=O)COCCOCCNC(=O)COCCOCCNC(=O)CC[C@H](NC(=O)CCCCCCCCCCCCCCCCC(=O)O)C(=O)O)NC(=O)[C@H](CCCN)NC(=O)[C@H](CC(=O)O)NC(=O)[C@H](CC(C)C)NC(=O)[C@](C)(CC(C)C)NC(=O)[C@@H](NC(=O)[C@H](CO)NC(=O)[C@@H](NC(=O)[C@H](CC(=O)O)NC(=O)[C@H](CO)NC(=O)[C@@H](NC(=O)[C@](C)(Cc1ccccc1F)NC(=O)[C@@H](NC(=O)CNC(=O)[C@H](CCC(=O)O)NC(=O)C(C)(C)NC(=O)[C@@H](N)Cc1ccc(O)cc1)[C@@H](C)O)[C@@H](C)O)C(C)C)[C@@H](C)CC)[C@@H](C)CC)C(=O)N[C@@H](CCC(=O)O)C(=O)NCC(=O)NCC(=O)N1CCC[C@H]1C(=O)N[C@@H](CO)C(=O)N[C@@H](CO)C(=O)NCC(=O)N[C@@H](C)C(=O)N1CCC[C@H]1C(=O)N1CCC[C@H]1C(=O)N1CCC[C@H]1C(=O)N[C@@H](CO)C(N)=O [Example 242] (H-Y[Aib]EGT[αMePhe(2-F)]TSDVSI[αMeL]LD[Orn]K([AEEA-AEEA-γGlu-C18 diacid])AQ[Aib]AFI[dE][αMeY]LIEGGPSSGAPPPS-NH2) | 95.9 | 0.0604 | 0.0164 | 0.0333 | 0.853
CC[C@H](C)[C@H](NC(=O)[C@H](CC(C)C)NC(=O)[C@](C)(Cc1ccc(O)cc1)NC(=O)[C@@H](CCC(=O)O)NC(=O)[C@@H](NC(=O)[C@H](Cc1ccccc1)NC(=O)[C@@H](NC(=O)C(C)(C)NC(=O)[C@H](CCC(N)=O)NC(=O)[C@H](C)NC(=O)[C@H](CCCCNC(=O)COCCOCCNC(=O)COCCOCCNC(=O)CC[C@H](NC(=O)CCCCCCCCCCCCCCCCC(=O)O)C(=O)O)NC(=O)[C@H](CCCN)NC(=O)[C@H](CC(=O)O)NC(=O)[C@H](CC(C)C)NC(=O)[C@](C)(CC(C)C)NC(=O)[C@@H](NC(=O)[C@H](CO)NC(=O)[C@H](CC(C)C)NC(=O)[C@H](CC(=O)O)NC(=O)[C@H](CO)NC(=O)[C@@H](NC(=O)[C@](C)(Cc1ccccc1F)NC(=O)[C@@H](NC(=O)CNC(=O)[C@H](CCC(=O)O)NC(=O)C(C)(C)NC(=O)[C@@H](N)Cc1ccc(O)cc1)[C@@H](C)O)[C@@H](C)O)[C@@H](C)CC)[C@@H](C)O)[C@@H](C)CC)C(=O)N[C@@H](CCC(=O)O)C(=O)NCC(=O)NCC(=O)N1CCC[C@H]1C(=O)N[C@@H](CO)C(=O)N[C@@H](CO)C(=O)NCC(=O)N[C@@H](C)C(=O)N1CCC[C@H]1C(=O)N1CCC[C@H]1C(=O)N1CCC[C@H]1C(=O)N[C@@H](CO)C(N)=O [Example 243] (H-Y[Aib]EGT[αMePhe(2-F)]TSDLSI[αMeL]LD[Orn]K([AEEA-AEEA-γGlu-C18 diacid])AQ[Aib]TFI[dE][αMeY]LIEGGPSSGAPPPS-NH2) | 145 | 0.0325 | 0.0265 | 0.0214 | 0.67
CC[C@H](C)[C@H](NC(=O)[C@H](CC(C)C)NC(=O)[C@](C)(Cc1ccc(O)cc1)NC(=O)[C@@H](CCC(=O)O)NC(=O)[C@@H](NC(=O)[C@H](Cc1ccccc1)NC(=O)[C@H](C)NC(=O)C(C)(C)NC(=O)[C@H](CCC(N)=O)NC(=O)[C@H](C)NC(=O)[C@H](CCCCNC(=O)COCCOCCNC(=O)COCCOCCNC(=O)CC[C@H](NC(=O)CCCCCCCCCCCCCCCCC(=O)O)C(=O)O)NC(=O)[C@H](CCCN)NC(=O)[C@H](CC(=O)O)NC(=O)[C@H](CC(C)C)NC(=O)[C@](C)(CC(C)C)NC(=O)[C@@H](NC(=O)[C@H](CO)NC(=O)[C@H](CC(C)C)NC(=O)[C@H](CC(=O)O)NC(=O)[C@H](CO)NC(=O)[C@@H](NC(=O)[C@](C)(Cc1ccccc1F)NC(=O)[C@@H](NC(=O)CNC(=O)[C@H](CCC(=O)O)NC(=O)C(C)(C)NC(=O)[C@@H](N)Cc1ccc(O)cc1)[C@@H](C)O)[C@@H](C)O)[C@@H](C)CC)[C@@H](C)CC)C(=O)N[C@@H](CCC(=O)O)C(=O)NCC(=O)NCC(=O)N1CCC[C@H]1C(=O)N[C@@H](CO)C(=O)N[C@@H](CO)C(=O)NCC(=O)N[C@@H](C)C(=O)N1CCC[C@H]1C(=O)N1CCC[C@H]1C(=O)N1CCC[C@H]1C(=O)N[C@@H](CO)C(N)=O [Example 244] (H-Y[Aib]EGT[αMePhe(2-F)]TSDLSI[αMeL]LD[Orn]K([AEEA-AEEA-γGlu-C18 diacid])AQ[Aib]AFI[dE][αMeY]LIEGGPSSGAPPPS-NH2) | 87.8 | 0.0308 | 0.0252 | 0.0225 | 0.82
CC[C@H](C)[C@H](NC(=O)[C@H](CC(C)C)NC(=O)[C@](C)(Cc1ccc(O)cc1)NC(=O)[C@@H](CCC(=O)O)NC(=O)[C@@H](NC(=O)[C@H](Cc1ccccc1)NC(=O)[C@H](C)NC(=O)C(C)(C)NC(=O)[C@H](CCC(N)=O)NC(=O)[C@H](C)NC(=O)[C@H](CCCCNC(=O)COCCOCCNC(=O)COCCOCCNC(=O)CC[C@H](NC(=O)CCCCCCCCCCCCCCCCC(=O)O)C(=O)O)NC(=O)[C@H](CCCN)NC(=O)[C@H](CC(=O)O)NC(=O)[C@H](CC(C)C)NC(=O)[C@](C)(CC(C)C)NC(=O)[C@@H](NC(=O)[C@H](CO)NC(=O)[C@H](C)NC(=O)[C@H](CC(=O)O)NC(=O)[C@H](CO)NC(=O)[C@@H](NC(=O)[C@](C)(Cc1ccccc1F)NC(=O)[C@@H](NC(=O)CNC(=O)[C@H](CCC(=O)O)NC(=O)C(C)(C)NC(=O)[C@@H](N)Cc1ccc(O)cc1)[C@@H](C)O)[C@@H](C)O)[C@@H](C)CC)[C@@H](C)CC)C(=O)N[C@@H](CCC(=O)O)C(=O)NCC(=O)NCC(=O)N1CCC[C@H]1C(=O)N[C@@H](CO)C(=O)N[C@@H](CO)C(=O)NCC(=O)N[C@@H](C)C(=O)N1CCC[C@H]1C(=O)N1CCC[C@H]1C(=O)N1CCC[C@H]1C(=O)N[C@@H](CO)C(N)=O [Example 246] (H-Y[Aib]EGT[αMePhe(2-F)]TSDASI[αMeL]LD[Orn]K([AEEA-AEEA-γGlu-C18 diacid])AQ[Aib]AFI[dE][αMeY]LIEGGPSSGAPPPS-NH2) | > 1010 | 0.0509 | 0.0144 | 0.0258 | 0.812
CC[C@H](C)[C@H](NC(=O)[C@H](CC(C)C)NC(=O)[C@H](Cc1ccc(O)cc1)NC(=O)[C@@H](CCC(=O)O)NC(=O)[C@@H](NC(=O)[C@H](Cc1ccccc1)NC(=O)[C@H](CCC(=O)O)NC(=O)C(C)(C)NC(=O)[C@H](CCC(N)=O)NC(=O)[C@H](C)NC(=O)[C@H](CCCCNC(=O)COCCOCCNC(=O)COCCOCCNC(=O)CC[C@H](NC(=O)CCCCCCCCCCCCCCCCC(=O)O)C(=O)O)NC(=O)[C@H](CCCN)NC(=O)[C@H](CC(=O)O)NC(=O)[C@H](CC(C)C)NC(=O)C(C)(C)NC(=O)[C@@H](NC(=O)[C@H](CO)NC(=O)[C@H](Cc1ccc(O)cc1)NC(=O)[C@H](CC(=O)O)NC(=O)[C@H](CO)NC(=O)[C@@H](NC(=O)C(C)(Cc1ccccc1F)NC(=O)[C@@H](NC(=O)CNC(=O)[C@H](CCC(=O)O)NC(=O)C(C)(C)NC(=O)[C@@H](N)Cc1ccc(O)cc1)[C@@H](C)O)[C@@H](C)O)[C@@H](C)CC)[C@@H](C)CC)C(=O)N[C@@H](CCC(=O)O)C(=O)NCC(=O)NCC(=O)N1CCC[C@H]1C(=O)N[C@@H](CO)C(=O)N[C@@H](CO)C(=O)NCC(=O)N[C@@H](C)C(=O)N1CCC[C@H]1C(=O)N1CCC[C@H]1C(=O)N1CCC[C@H]1C(=O)N[C@@H](CO)C(N)=O (stereo partly shown) [Example 247] | > 1100 | > 55.1 | 0.0491 | 0.0622 | 4.39
